Results from patent US7470684B2, “Spiropiperidine derivatives as NK3 antagonists” (Hoffmann-La Roche Inc., priority 2007, dated 2008).
Like-named read-outs stand apart in the source and are kept apart here.

Target: T1, human NK3 receptor (Homo sapiens, UniProt P29371)
T1 construct: expressed in transfected cells; host or cells: HEK293 cells, transiently transfected; membranes
T1 sequence (P29371 1-465): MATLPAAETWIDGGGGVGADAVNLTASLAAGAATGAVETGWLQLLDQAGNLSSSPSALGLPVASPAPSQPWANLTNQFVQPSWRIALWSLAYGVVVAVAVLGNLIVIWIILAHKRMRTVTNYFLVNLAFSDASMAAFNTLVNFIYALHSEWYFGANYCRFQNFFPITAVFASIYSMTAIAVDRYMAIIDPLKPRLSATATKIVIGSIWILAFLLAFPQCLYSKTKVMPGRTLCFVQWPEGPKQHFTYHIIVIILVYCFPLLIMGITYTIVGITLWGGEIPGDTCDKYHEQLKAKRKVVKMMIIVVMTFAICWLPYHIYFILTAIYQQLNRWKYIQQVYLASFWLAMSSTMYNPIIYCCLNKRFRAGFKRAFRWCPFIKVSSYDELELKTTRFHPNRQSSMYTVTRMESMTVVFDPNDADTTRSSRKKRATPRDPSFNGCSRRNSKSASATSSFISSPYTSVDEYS
Experiment: [3H]SR142801 competition binding assay
Description: [^3H]SR142801 Competition Binding Assay
hNK3 receptor binding experiment were performed using [^3H]SR142801 (Catalog No. TRK1035, specific activity: 74.0 Ci/mmol, Amersham, GE Healthcare UK limited, Buckinghamshire, UK) and membrane isolated from HEK293 cells transiently expressing recombinant human NK3 receptor. After thawing, the membrane homogenates were centrifuged at 48,000×g for 10 min at 4° C., the pellets were resuspended in the 50 mM Tris-HCl, 4 mM MnCl2, 1 μM phosphoramidon, 0.1% BSA binding buffer at pH 7.4 to a final assay concentration of 5 μg protein/well. For inhibition experiments, membranes were incubated with [^3H]SR142801 at a concentration equal to KD value of radioligand and 10 concentrations of the inhibitory compound (0.0003-10 μM) (in a total reaction volume of 500 μl) for 75 min at room temperature (RT). At the end of the incubation, membranes were filtered onto unitfilter (96-well white microplate with bonded GF/C filter preincubated 1 h in 0.3% PEI+0.3% BSA, Packard BioScience, Meriden, Conn.) with a Filtermate 196 harvester (Packard BioScience) and washed 4 times with ice-cold 50 mM Tris-HCl, pH 7.4 buffer. Nonspecific binding was measured in the presence of 10 μM SB222200 for both radioligands. The radioactivity on the filter was counted (5 min) on a Packard Top-count microplate scintillation counter with quenching correction after addition of 45 μl of microscint 40 (Canberra Packard S.A., Zürich, Switzerland) and shaking for 1 h. Inhibition curves were fitted according to the Hill equation: y=100/(1+(x/IC50)^nH), where nH=slope factor using Excel-fit 4 software (Microsoft). IC50 values were derived from the inhibition curve and the affinity constant (Ki) values were calculated using the Cheng-Prussoff equation Ki=IC50/(1+[L]/KD) where [L] is the concentration of radioligand and KD is its dissociation constant at the receptor, derived from the saturation isotherm. All experiments were performed in duplicate and the mean±standard error (SEM) of the individual Ki values was calculated.

[1] = hNK3 Ki, [3H]SR142801 displacement, membranes of HEK293 cells transiently expressing recombinant human NK3 receptor
[2] = [3H]SR142801 displacement, membranes of HEK293 cells transiently expressing recombinant human NK3 receptor, read-out: hNK3 Ki

Q: For CN1C(=O)OC2(CCN(CCC(C(=O)NCc3ccc(Cl)cc3Cl)c3ccc(Cl)c(Cl)c3)CC2)c2cc(F)ccc21 (stereo not drawn) [Example 87, N-(2,4-dichlorobenzyl)-2-(3,4-dichlorophenyl)-4-(6-fluoro-1-methyl-2-oxo-1,2-dihydro-1′H-spiro[3,1-benzoxazine-4,4′-piperidin]-1′-yl)butanamide], which Ki [1] is on record?
A: The Ki was 2.1 nM.

Q: Which Ki [2] does the source give for CN(Cc1ccc(-c2ccncc2)cc1)C(=O)C(CCN1CCC2(CC1)OC(=O)Nc1ccc(F)cc12)c1ccc(Cl)c(Cl)c1 (stereo not drawn) [Example 72, 2-(3,4-dichlorophenyl)-4-(6-fluoro-2-oxo-1,2-dihydro-1′H-spiro[3,1-benzoxazine-4,4′-piperidin]-1′-yl)-N-methyl-N-(4-pyridin-4-ylbenzyl)butanamide] here?
A: The Ki was 18.7 nM.

Q: CN(Cc1cccc(Cl)c1)C(=O)C(CCN1CCC2(CC1)OC(=O)Nc1ccc(F)cc12)c1ccc(F)cc1 (stereo not drawn) [Example 25, N-(3-chlorobenzyl)-4-(6-fluoro-2-oxo-1,2-dihydro-1′H-spiro[3,1-benzoxazine-4,4′-piperidin]-1′-yl)-2-(4-fluorophenyl)-N-methylbutanamide] was tested. Which Ki [1] did it give?
A: The Ki was 59.4 nM.

Q: With CN1C(=O)OC2(CCN(CCC(C(=O)NCc3cccc(OC(F)F)c3)c3ccc(Cl)c(Cl)c3)CC2)c2cc(F)ccc21 (stereo not drawn) [Example 92, 2-(3,4-dichlorophenyl)-N-[3-(difluoromethoxy)benzyl]-4-(6-fluoro-1-methyl-2-oxo-1,2-dihydro-1′H-spiro[3,1-benzoxazine-4,4′-piperidin]-1′-yl)butanamide] as the compound, how does the Ki [1] read?
A: Its Ki is 2.8 nM.

Q: With CN(CCc1ccccc1)C(=O)C(CCN1CCC2(CC1)OC(=O)Nc1ccc(F)cc12)c1ccc(Cl)c(Cl)c1 (stereo not drawn) [Example 65, 2-(3,4-dichlorophenyl)-4-(6-fluoro-2-oxo-1,2-dihydro-1′H-spiro[3,1-benzoxazine-4,4′-piperidin]-1′-yl)-N-methyl-N-(2-phenylethyl)butanamide] as the compound, how does the Ki [2] read?
A: The Ki was 70.7 nM.

Q: Cc1ccc(CN(C)C(=O)C(CCN2CCC3(CC2)OC(=O)N(C)c2ccc(F)cc23)c2ccc(Cl)c(Cl)c2)cc1 (stereo not drawn) [Example 102, 2-(3,4-dichlorophenyl)-4-(6-fluoro-1-methyl-2-oxo-1,2-dihydro-1′H-spiro[3,1-benzoxazine-4,4′-piperidin]-1′-yl)-N-methyl-N-(4-methylbenzyl)butanamide] was tested. Which Ki [2] did it give?
A: The Ki was 2.1 nM.

Q: CCN(Cc1ccc(C)cc1)C(=O)C(CCN1CCC2(CC1)OC(=O)N(C)c1ccc(F)cc12)c1ccc(Cl)c(Cl)c1 (stereo not drawn) [Example 39, 2-(3,4-dichlorphenyl)-N-ethyl-4-(6-fluoro-1-methyl-2-oxo-1,2-dihydro-1′H-spiro[3,1-benzoxazine-4,4′-piperidin]-1′-yl)-N-(4-methylbenzyl)butanamide] was tested. Which Ki [1] did it give?
A: The Ki was 4.2 nM.

Q: Which Ki [1] does the source give for CN(Cc1cccc(F)c1)C(=O)C(CCN1CCC2(CC1)OC(=O)Nc1ccc(F)cc12)c1ccc(Cl)c(Cl)c1 (stereo not drawn) [Example 76, 2-(3,4-dichlorophenyl)-N-(3-fluorobenzyl)-4-(6-fluoro-2-oxo-1,2-dihydro-1′H-spiro[3,1-benzoxazine-4,4′-piperidin]-1′-yl)-N-methylbutanamide] here?
A: Its Ki is 4.6 nM.

Q: With Cc1ccc(CN(C)C(=O)C(CCCN2CCC3(CC2)OC(=O)Nc2ccc(F)cc23)c2ccc(Cl)c(Cl)c2)cc1 (stereo not drawn) [Example 138, 2-(3,4-dichlorophenyl)-5-(6-fluoro-2-oxo-1,2-dihydro-1′H-spiro[3,1-benzoxazine-4,4′-piperidin]-1′-yl)-N-methyl-N-(4-methylbenzyl)pentanamide] as the compound, how does the Ki [1] read?
A: Its Ki is 95.4 nM.

Q: How did the Ki [1] turn out when CCN(Cc1ccccc1)C(=O)C(CCN1CCC2(CC1)OC(=O)Nc1ccc(F)cc12)c1ccc(Cl)c(Cl)c1 (stereo not drawn) [Example 6, N-benzyl-2-(3,4-dichlorophenyl)-N-ethyl-4-(6-fluoro-2-oxo-1,2-dihydro-1′H-spiro[3,1-benzoxazine-4,4′-piperidin]-1′-yl)butanamide] was run?
A: The Ki was 62.8 nM.

Q: How did the Ki [1] turn out when CN1C(=O)OC2(CCN(CCC(C(=O)NCc3cccc(C(F)(F)F)c3)c3ccc(Cl)c(Cl)c3)CC2)c2cc(F)ccc21 (stereo not drawn) [Example 108, 2-(3,4-dichlorophenyl)-4-(6-fluoro-1-methyl-2-oxo-1,2-dihydro-1′H-spiro[3,1-benzoxazine-4,4′-piperidin]-1′-yl)-N-[3-(trifluoromethyl)benzyl]butanamide] was run?
A: Its Ki is 3 nM.

Q: Which Ki [1] does the source give for CN(Cc1cccc(C(F)(F)F)c1)C(=O)C(CCN1CCC2(CC1)OC(=O)N(C)c1ccc(F)cc12)c1ccc(Cl)c(Cl)c1 (stereo not drawn) [Example 104, 2-(3,4-dichlorophenyl)-4-(6-fluoro-1-methyl-2-oxo-1,2-dihydro-1′H-spiro[3,1-benzoxazine-4,4′-piperidin]-1′-yl)-N-methyl-N-[3-(trifluoromethyl)benzyl]butanamide] here?
A: The Ki was 1.6 nM.

Q: For CN(Cc1cccc(Cl)c1)C(=O)C(CCN1CCC2(CC1)OC(=O)Nc1ccc(F)cc12)c1ccc(Cl)c(Cl)c1 (stereo not drawn) [Example 19, N-(3-chlorobenzyl)-2-(3,4-dichlorophenyl)-4-(6-fluoro-2-oxo-1,2-dihydro-1′H-spiro[3,1-benzoxazine-4,4′-piperidin]-1′-yl)-N-methylbutanamide], which Ki [1] is on record?
A: The Ki was 5.2 nM.

Q: For CN1C(=O)OC2(CCN(CCC(C(=O)N3CCc4ccc(F)cc4C3)c3ccc(Cl)c(Cl)c3)CC2)c2cc(F)ccc21 (stereo not drawn) [Example 38, 1′-[3-(3,4-dichlorophenyl)-4-(7-fluoro-3,4-dihydroisoquinolin-2(1H)-yl)-4-oxobutyl]-6-fluoro-1-methylspiro[3,1-benzoxazine-4,4′-piperidin]-2(1H)-one], which Ki is on record?
A: The Ki was 48.7 nM.

Q: For CN(Cc1ccc(F)cc1)C(=O)C(CCN1CCC2(CC1)OC(=O)Nc1ccc(F)cc12)c1ccc(Cl)c(Cl)c1 (stereo not drawn) [Example 80, 2-(3,4-dichlorophenyl)-N-(4-fluorobenzyl)-4-(6-fluoro-2-oxo-1,2-dihydro-1′H-spiro[3,1-benzoxazine-4,4′-piperidin]-1′-yl)-N-methylbutanamide], which Ki [1] is on record?
A: Its Ki is 4.4 nM.

Q: CN(Cc1ccccc1Cl)C(=O)C(CCN1CCC2(CC1)OC(=O)N(C)c1ccc(F)cc12)c1ccc(Cl)c(Cl)c1 (stereo not drawn) [Example 44, N-(2-chlorobenzyl)-2-(3,4-dichlorophenyl)-4-(6-fluoro-1-methyl-2-oxo-1,2-dihydro-1′H-spiro[3,1-benzoxazine-4,4′-piperidin]-1′-yl)-N-methylbutanamide] was tested. Which Ki [1] did it give?
A: The Ki was 1.6 nM.

Q: With CN1C(=O)OC2(CCN(CCC(C(=O)NCc3ccc(S(C)(=O)=O)cc3)c3ccc(Cl)c(Cl)c3)CC2)c2cc(F)ccc21 (stereo not drawn) [Example 33, 2-(3,4-dichlorophenyl)-4-(6-fluoro-1-methyl-2-oxo-1,2-dihydro-1′H-spiro[3,1-benzoxazine-4,4′-piperidin]-1′-yl)-N-[4-(methylsulfonyl)benzyl]butanamide] as the compound, how does the Ki [1] read?
A: The Ki was 54.7 nM.

Q: For CN(Cc1ccc(C(F)(F)F)cc1)C(=O)C(CCN1CCC2(CC1)OC(=O)N(C)c1ccc(F)cc12)c1ccc(Cl)c(Cl)c1 (stereo not drawn) [Example 93, 2-(3,4-dichlorophenyl)-4-(6-fluoro-1-methyl-2-oxo-1,2-dihydro-1′H-spiro[3,1-benzoxazine-4,4′-piperidin]-1′-yl)-N-methyl-N-[4-(trifluoromethyl)benzyl]butanamide], which Ki [1] is on record?
A: Its Ki is 0.6 nM.

Q: Which Ki does the source give for CN(Cc1ccc(-c2ccncc2)cc1)C(=O)C(CCN1CCC2(CC1)OC(=O)N(C)c1ccc(F)cc12)c1ccc(Cl)c(Cl)c1 (stereo not drawn) [Example 97, 2-(3,4-dichlorophenyl)-4-(6-fluoro-1-methyl-2-oxo-1,2-dihydro-1′H-spiro[3,1-benzoxazine-4,4′-piperidin]-1′-yl)-N-methyl-N-(4-pyridin-4-ylbenzyl)butanamide] here?
A: The Ki was 9.4 nM.

Q: CN(Cc1ccc(Cl)cc1)C(=O)C(CCCN1CCC2(CC1)OC(=O)Nc1ccc(F)cc12)c1ccc(Cl)c(Cl)c1 (stereo not drawn) [Example 120, N-(4-chlorobenzyl)-2-(3,4-dichlorophenyl)-5-(6-fluoro-2-oxo-1,2-dihydro-1′H-spiro[3,1-benzoxazine-4,4′-piperidin]-1′-yl)-N-methylpentanamide] was tested. Which Ki [1] did it give?
A: The Ki was 46.3 nM.

Q: Which Ki [1] does the source give for COc1ccc(CNC(=O)C(CCN2CCC3(CC2)OC(=O)Nc2ccc(F)cc23)c2ccc(Cl)c(Cl)c2)cc1 (stereo not drawn) [Example 82, 2-(3,4-dichlorophenyl)-4-(6-fluoro-2-oxo-1,2-dihydro-1′H-spiro[3,1-benzoxazine-4,4′-piperidin]-1′-yl)-N-(4-methoxybenzyl)butanamide] here?
A: Its Ki is 19.7 nM.
